Measurements published in patent US8796271B2, “Heteroaryls and uses thereof” (Millennium Pharmaceuticals, Inc., priority 2010, dated 2014).
Read-outs that look alike come from different tables or passages of the source.

Legend:
Type in all cases: biochemical
PI3K gamma = target: T1, PI3K gamma (Homo sapiens, UniProt P48736); experiment: Human PI3K gamma enzyme assay (HTRF)
T1 construct: His (N); host or cells: SF9 cells (baculovirus)
Excerpt: (§1) The catalytic subunits of PI3Ks are cloned into either pDEST8 (p110 alpha) or pDEST10 (p110beta, p110delta, and p110gamma) as N-terminal His tagged fusion proteins using the Gateway system (Invitrogen, catalog #11804-010 for pDEST8 and 11806-015 for pDEST10). The sequences are verified before recombinant protein expression using the Baculovirus Expression System with Gateway® Technology. The accession numbers for the subunits are as follows:
(§2) For expression of the p110 complexes, the p85 (MOI of 4) is co-infected with p110 alpha, beta, and delta respectively (1MOI) in SF9 cells and harvested at 60 hours post co-infection. P110 gamma was infected at 1 MOI and harvested at 60 hours post infection.
(§3) For purification, PI3Ks are purified by Ni-NTA Agarose (Qiagen #30250) followed by Mono Q 10/100 GL (Ge Healthcare #17-5167-01). VPS34 is purified by Glutathione Sepharose 4 Fast Flow (GE Healthcare #17-5132-03) followed by HiTrap Q (GE Healthcare #17-1153-01).
(§4) 0.5 uL compounds in DMSO are added to wells of a 384 well microtitre plate (Corning 3575). At room temperature: 10 ul PI3K reaction buffer (50 mM Hepes, 5 mM DTT, 150 mM NaCl, 10 mM beta-glycerophosphate, 10 mM MgCl2, 0.25 mM sodium cholate and 0.001% CHAPS, pH 7.00) containing ATP (25 uM, Promega) is added followed immediately by 10 ul PI3K reaction buffer containing di-C8 PI(4,5)P2 (3.5 uM, CellSignals) and PI3Kalpha (0.4875 nM, Millennium Protein Sciences Group) and the mixture is incubated with shaking at room temperature for 30 minutes. Then 5 ul PI3K stop mix (50 mM Hepes, 5 mM DTT, 150 mM NaCl, 0.01% Tween-20, 15 mM EDTA and 25 nM biotin-PI(3,4,5)P3 (Echelon) is added to quench the reaction followed immediately by addition of 5 ul HTRF detection mix (50 mM Hepes, 5 mM DTT, 150 mM NaCl, 0.01% Tween-20, 40 mM KF, 10 nM GST:GRP-1 PH domain (Millennium Protein Sciences Group), 15 nM Streptavidin-XL (CisBio) and 0.375 nM anti-GST Eu++ antibody (CisBio) at pH 7.00). The plates are then incubated for 1 hour at room temperature with shaking and then read on a BMG PheraStar Plus reader.
(§5) 2) Human PI3K beta, delta and gamma isoforms are tested using the procedure described for PI3K alpha above but with the following changes: PI3K beta (5.25 nM), PI3K delta (0.75 nM) and PI3K gamma (5 nM). All isoforms supplied by Millennium Protein Science Group.
(§6) For the assay methods described above, test compound percent inhibition, at various concentrations, is calculated relative to control (DMSO and EDTA) treated samples. Compound concentration versus percent inhibition curves are fitted to generate IC50 values. One skilled in the art will appreciate that the values generated either as percentage inhibition at a single concentration or IC50 values are subject to experimental variation.

PI3Kalpha = target: T2, PI3Kalpha (Homo sapiens, UniProt P42336); experiment: Human PI3K alpha enzyme assay (HTRF)
T2 construct: His (N); host or cells: SF9 cells (baculovirus)
Excerpt: as §1, §2, §3
1) Human PI3K Alpha Enzyme Assay Method
as §4, §6

PI3K delta = target: T3, PI3K delta (Homo sapiens, UniProt O00329); experiment: Human PI3K delta enzyme assay (HTRF)
T3 construct: His (N); host or cells: SF9 cells (baculovirus)
Excerpt: as §1, §2, §3, §4, §5, §6

PI3K beta = target: T4, PI3K beta (Homo sapiens, UniProt P42338); experiment: Human PI3K beta enzyme assay (HTRF)
T4 construct: His (N); host or cells: SF9 cells (baculovirus)
Excerpt: as §1, §2, §3, §4, §5, §6

VPS34 = target: T5, VPS34 (Homo sapiens, UniProt Q8NEB9); experiment: Human VPS34 enzyme assay (Adapta Universal Kinase Assay); conditions: 1 h; at a 1.0 μM concentration; read-out: VPS34 Percent Inhibition
T5 construct: GST (N); host or cells: SF9 cells (baculovirus)
Description: VPS34 (accession number GB:BC033004) is cloned into pDEST20-Thombin as N-terminal GST tagged fusion proteins using the Gateway system (Invitrogen, catalog #11804-013). The sequences are verified before recombinant protein expression using the Baculovirus Expression System with Gateway® Technology.
For expression VPS34 was infected at 1MOI in SF9 cells and harvested 72 hours post infection.
For purification, VPS34 is purified by Glutathione Sepharose 4 Fast Flow (GE Healthcare #17-5132-03) followed by HiTrap Q (GE Healthcare #17-1153-01).
3) VPS34 is assayed using Adapta™ Universal Kinase Assay Kit (Invitrogen).
4) Human VPS34 enzyme assay method
100 nL compounds in DMSO are added to wells of a 384 well microtitre plate (Greiner 780076). […] The plates are then incubated for 30 minutes at room temperature with shaking and then read on a BMG PheraStar Plus reader.
For the assay methods described above, test compound percent inhibition, at various concentrations, is calculated relative to control (DMSO and EDTA) treated samples. […]

[1] = at a 1.0 μM concentration, read-out: PI3Kγ Percent Inhibition
[2] = at a 1.1 μM concentration, read-out: PI3Kα Percent Inhibition
[3] = at a 1.0 μM concentration, read-out: PI3Kδ Percent Inhibition
[4] = at a 1.1 μM concentration, read-out: PI3Kβ Percent Inhibition
[5] = concentration not given, b1433 gives 1.0 μM for PI3K δ and γ, read-out: p110 gamma Percent Inhibition
[6] = concentration not given, read-out: p110 alpha Percent Inhibition
[7] = concentration not given, b1433 gives 1.0 μM for PI3K δ and γ, read-out: p110 delta Percent Inhibition
[8] = concentration not given, read-out: p110 beta Percent Inhibition

T4 sequence (P42338 whole entry): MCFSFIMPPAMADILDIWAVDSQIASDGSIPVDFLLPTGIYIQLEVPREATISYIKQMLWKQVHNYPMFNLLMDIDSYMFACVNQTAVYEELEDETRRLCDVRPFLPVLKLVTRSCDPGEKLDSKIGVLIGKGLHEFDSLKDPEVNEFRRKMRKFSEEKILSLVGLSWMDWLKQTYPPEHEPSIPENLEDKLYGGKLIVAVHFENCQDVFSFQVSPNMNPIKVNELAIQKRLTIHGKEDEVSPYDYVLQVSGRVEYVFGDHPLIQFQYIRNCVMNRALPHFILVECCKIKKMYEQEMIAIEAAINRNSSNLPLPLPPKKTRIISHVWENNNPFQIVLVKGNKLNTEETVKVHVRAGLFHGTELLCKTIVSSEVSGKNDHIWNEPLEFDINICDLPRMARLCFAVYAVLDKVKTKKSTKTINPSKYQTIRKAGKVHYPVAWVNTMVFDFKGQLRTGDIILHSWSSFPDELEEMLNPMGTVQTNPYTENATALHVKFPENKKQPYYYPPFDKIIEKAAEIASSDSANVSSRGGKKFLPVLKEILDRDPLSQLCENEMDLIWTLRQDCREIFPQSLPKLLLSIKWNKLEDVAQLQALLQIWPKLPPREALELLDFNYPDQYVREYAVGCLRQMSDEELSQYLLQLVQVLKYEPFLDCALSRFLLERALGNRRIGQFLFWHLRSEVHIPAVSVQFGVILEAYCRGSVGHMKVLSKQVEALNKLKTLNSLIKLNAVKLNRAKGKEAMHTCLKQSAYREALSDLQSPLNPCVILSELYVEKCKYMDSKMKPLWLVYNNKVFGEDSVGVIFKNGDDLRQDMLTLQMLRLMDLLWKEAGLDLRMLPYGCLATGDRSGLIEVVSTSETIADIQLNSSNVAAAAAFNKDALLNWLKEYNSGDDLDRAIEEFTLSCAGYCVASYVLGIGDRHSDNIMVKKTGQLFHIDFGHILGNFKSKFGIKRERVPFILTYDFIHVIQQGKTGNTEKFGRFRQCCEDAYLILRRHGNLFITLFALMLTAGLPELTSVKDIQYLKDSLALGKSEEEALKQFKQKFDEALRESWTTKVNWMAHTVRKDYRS
T4 sequence (P27986 whole entry partner): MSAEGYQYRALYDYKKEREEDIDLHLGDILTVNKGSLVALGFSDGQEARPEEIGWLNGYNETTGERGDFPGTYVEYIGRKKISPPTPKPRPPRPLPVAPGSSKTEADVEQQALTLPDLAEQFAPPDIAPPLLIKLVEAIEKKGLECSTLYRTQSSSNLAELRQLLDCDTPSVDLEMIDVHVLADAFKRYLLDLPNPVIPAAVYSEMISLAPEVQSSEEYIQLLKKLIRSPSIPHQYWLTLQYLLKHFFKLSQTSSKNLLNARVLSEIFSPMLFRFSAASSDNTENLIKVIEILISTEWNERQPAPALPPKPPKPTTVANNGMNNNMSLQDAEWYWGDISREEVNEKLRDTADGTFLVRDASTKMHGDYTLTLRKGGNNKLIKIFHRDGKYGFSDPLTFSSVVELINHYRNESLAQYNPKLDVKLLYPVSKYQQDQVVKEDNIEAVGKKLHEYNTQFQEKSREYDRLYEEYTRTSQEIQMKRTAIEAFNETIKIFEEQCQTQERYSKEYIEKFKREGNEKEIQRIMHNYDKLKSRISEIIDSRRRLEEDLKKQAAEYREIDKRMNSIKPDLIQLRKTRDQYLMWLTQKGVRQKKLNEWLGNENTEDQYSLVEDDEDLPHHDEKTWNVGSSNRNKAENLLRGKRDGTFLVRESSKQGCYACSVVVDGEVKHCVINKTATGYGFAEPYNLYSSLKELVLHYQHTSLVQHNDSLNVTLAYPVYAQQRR
T2 sequence (P42336 whole entry): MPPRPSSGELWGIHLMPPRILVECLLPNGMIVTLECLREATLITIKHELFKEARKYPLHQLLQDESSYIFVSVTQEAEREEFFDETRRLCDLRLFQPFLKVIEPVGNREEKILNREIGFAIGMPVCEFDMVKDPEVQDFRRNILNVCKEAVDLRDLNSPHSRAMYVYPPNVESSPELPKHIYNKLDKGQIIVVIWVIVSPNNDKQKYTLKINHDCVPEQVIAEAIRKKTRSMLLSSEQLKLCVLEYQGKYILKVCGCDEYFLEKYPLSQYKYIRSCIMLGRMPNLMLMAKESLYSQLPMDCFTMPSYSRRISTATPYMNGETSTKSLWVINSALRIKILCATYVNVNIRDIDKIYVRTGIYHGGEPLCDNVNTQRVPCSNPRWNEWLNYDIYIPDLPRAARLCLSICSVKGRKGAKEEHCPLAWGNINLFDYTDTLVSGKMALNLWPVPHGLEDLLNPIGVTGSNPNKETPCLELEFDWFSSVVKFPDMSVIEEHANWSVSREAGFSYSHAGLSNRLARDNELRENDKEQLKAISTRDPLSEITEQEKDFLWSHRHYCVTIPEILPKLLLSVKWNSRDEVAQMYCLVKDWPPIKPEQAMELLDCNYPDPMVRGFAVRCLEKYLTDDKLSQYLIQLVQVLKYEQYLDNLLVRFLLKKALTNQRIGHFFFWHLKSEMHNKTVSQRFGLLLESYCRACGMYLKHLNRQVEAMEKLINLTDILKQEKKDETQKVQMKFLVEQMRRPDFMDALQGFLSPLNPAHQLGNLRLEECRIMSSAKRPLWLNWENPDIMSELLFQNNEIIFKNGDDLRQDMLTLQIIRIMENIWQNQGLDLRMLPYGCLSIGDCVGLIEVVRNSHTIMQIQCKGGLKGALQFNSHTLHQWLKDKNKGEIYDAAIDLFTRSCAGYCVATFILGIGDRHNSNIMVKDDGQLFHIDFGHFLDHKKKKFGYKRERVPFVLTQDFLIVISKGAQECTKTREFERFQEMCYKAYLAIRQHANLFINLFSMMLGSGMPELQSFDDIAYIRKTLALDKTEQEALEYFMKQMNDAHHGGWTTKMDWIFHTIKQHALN
T2 sequence (P27986 whole entry partner): as the sequence (P27986 whole entry partner) above
T3 sequence (O00329 whole entry): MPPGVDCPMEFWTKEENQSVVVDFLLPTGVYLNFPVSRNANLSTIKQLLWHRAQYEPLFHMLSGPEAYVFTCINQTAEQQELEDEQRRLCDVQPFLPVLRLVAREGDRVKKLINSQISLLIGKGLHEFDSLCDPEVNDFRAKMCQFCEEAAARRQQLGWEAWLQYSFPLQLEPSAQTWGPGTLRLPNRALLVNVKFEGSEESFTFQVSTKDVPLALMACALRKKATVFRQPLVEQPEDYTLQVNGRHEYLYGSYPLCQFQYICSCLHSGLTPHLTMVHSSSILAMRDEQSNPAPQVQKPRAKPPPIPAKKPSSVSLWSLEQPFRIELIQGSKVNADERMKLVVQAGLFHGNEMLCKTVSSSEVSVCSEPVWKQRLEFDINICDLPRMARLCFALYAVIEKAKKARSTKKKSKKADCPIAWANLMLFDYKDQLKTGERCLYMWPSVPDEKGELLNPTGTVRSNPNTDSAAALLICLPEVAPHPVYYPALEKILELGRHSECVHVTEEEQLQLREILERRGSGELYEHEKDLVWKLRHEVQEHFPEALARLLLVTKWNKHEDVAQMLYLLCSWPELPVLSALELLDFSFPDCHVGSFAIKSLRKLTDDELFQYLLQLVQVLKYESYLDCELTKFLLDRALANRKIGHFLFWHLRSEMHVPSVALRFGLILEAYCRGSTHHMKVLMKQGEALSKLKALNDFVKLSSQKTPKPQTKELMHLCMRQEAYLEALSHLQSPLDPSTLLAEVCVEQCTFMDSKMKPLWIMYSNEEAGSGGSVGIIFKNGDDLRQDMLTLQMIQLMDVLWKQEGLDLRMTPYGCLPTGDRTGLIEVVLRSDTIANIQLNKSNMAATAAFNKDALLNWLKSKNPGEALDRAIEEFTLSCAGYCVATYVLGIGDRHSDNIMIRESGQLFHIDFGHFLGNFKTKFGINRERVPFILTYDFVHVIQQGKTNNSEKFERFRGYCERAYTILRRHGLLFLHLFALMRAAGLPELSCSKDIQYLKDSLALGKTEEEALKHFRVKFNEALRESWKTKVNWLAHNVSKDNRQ
T3 sequence (P27986 whole entry partner): as the sequence (P27986 whole entry partner) above
T1 sequence (P48736 whole entry): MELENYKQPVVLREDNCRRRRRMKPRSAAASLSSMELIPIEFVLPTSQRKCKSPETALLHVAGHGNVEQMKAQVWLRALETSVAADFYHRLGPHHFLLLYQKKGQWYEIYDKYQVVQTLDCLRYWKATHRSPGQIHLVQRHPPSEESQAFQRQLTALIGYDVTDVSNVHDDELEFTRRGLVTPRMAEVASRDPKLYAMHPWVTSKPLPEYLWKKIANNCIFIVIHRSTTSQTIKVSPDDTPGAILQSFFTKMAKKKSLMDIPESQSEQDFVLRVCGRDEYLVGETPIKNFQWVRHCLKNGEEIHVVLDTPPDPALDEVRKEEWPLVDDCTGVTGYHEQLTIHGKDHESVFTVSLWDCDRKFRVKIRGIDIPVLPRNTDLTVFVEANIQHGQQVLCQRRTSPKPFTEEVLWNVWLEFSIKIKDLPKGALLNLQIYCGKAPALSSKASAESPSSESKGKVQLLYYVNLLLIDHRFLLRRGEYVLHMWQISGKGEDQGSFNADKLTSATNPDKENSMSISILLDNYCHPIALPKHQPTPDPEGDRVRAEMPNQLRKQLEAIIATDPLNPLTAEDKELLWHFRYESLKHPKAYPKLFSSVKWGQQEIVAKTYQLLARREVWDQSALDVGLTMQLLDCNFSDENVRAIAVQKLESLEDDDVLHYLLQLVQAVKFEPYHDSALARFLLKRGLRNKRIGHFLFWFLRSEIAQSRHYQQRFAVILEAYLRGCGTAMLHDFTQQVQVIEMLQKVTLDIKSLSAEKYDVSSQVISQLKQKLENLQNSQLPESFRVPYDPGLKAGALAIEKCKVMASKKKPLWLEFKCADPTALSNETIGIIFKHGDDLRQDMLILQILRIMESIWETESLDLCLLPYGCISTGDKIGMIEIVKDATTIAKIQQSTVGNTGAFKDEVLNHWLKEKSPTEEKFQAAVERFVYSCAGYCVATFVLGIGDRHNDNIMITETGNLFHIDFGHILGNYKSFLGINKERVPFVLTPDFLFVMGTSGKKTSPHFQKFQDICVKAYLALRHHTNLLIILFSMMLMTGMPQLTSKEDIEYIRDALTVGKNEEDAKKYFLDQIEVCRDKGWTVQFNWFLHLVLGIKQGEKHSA

N#Cc1c(N2CCOCC2)sc(C(=O)O)c1Cc1ccc(OC(F)(F)F)cc1 [Compound 102]
inhibition at 1 µM (PI3K gamma; [1]): 6.8%
inhibition at 1.1 µM (PI3Kalpha; [2]): 30%
inhibition at 1 µM (PI3K delta; [3]): 38.1%
inhibition at 1.1 µM (PI3K beta; [4]): 78%
inhibition at 1 µM (VPS34): 28.2%

N#Cc1c(N2CCOCC2)sc(C(=O)O)c1Cc1cc(F)c(F)cc1F [Compound 107]
inhibition at 1 µM (PI3K gamma; [1]): 20.2%
inhibition at 1.1 µM (PI3Kalpha; [2]): 49%
inhibition at 1 µM (PI3K delta; [3]): 87.3%
inhibition at 1.1 µM (PI3K beta; [4]): 103%
inhibition at 1 µM (VPS34): 45.8%

OC(c1cc(Br)cs1)c1cc(-c2ccncc2)sc1-c1nnc[nH]1 (stereo not shown) [Compound 233]
inhibition at 1 µM (PI3K gamma; [5]): 28%
inhibition at 1.1 µM (PI3Kalpha; [6]): 61%
inhibition at 1 µM (PI3K delta; [7]): 74%
inhibition at 1.1 µM (PI3K beta; [8]): 97%

COc1cccc(C(O)c2cc(-c3ccncc3)sc2-c2nnc[nH]2)c1 (stereo not shown) [Compound 253]
inhibition at 1 µM (PI3K gamma; [5]): 2%
inhibition at 1.1 µM (PI3Kalpha; [6]): 20%
inhibition at 1 µM (PI3K delta; [7]): 27%
inhibition at 1.1 µM (PI3K beta; [8]): 64%

NCc1c[nH]c(-c2sc(-c3ccncc3)nc2Cc2ccc(Cl)cc2)n1 [Compound 255, (2-(4-(4-chlorobenzyl)-2-(pyridin-4-yl)thiazol-5-yl)-1H-imidazol-4-yl)methanamine]
inhibition at 1 µM (PI3K gamma; [5]): 5%
inhibition at 1.1 µM (PI3Kalpha; [6]): 0%
inhibition at 1 µM (PI3K delta; [7]): 39%
inhibition at 1.1 µM (PI3K beta; [8]): 55%

N#Cc1c(N2CCOCC2)sc(C(=O)O)c1Cc1ccc2ccc(F)cc2c1 [Compound 287]
inhibition at 1 µM (PI3K gamma; [5]): 69%
inhibition at 1.1 µM (PI3Kalpha; [6]): 84%
inhibition at 1.1 µM (PI3K beta; [8]): 109%

N#Cc1c(N2CCOCC2)sc(C(=O)O)c1Cc1ccc2ccccc2c1F [Compound 293]
inhibition at 1 µM (PI3K gamma; [5]): 78%
inhibition at 1.1 µM (PI3Kalpha; [6]): 98%
inhibition at 1.1 µM (PI3K beta; [8]): 108%

N#Cc1c(N2CCOCC2)sc(C(=O)O)c1Cc1cc2ccccc2cc1F [Compound 295]
inhibition at 1 µM (PI3K gamma; [5]): 76%
inhibition at 1.1 µM (PI3Kalpha; [6]): 101%
inhibition at 1.1 µM (PI3K beta; [8]): 111%

N#Cc1c(N2CCOCC2)sc(C(=O)O)c1Cc1cc(F)c(Cl)cc1F [Compound 300]
inhibition at 1 µM (PI3K gamma; [5]): 46%
inhibition at 1.1 µM (PI3Kalpha; [6]): 44%
inhibition at 1.1 µM (PI3K beta; [8]): 105%

N#Cc1c(N2CCOCC2)sc(C(=O)O)c1Cc1ccc2c(c1)CCCC2 [Compound 305]
inhibition at 1 µM (PI3K gamma; [5]): 37%
inhibition at 1.1 µM (PI3Kalpha; [6]): 37%
inhibition at 1.1 µM (PI3K beta; [8]): 106%

N#Cc1c(N2CCOCC2)sc(C(N)=O)c1C(F)(F)c1ccc2ccccc2c1 [Compound 307]
inhibition at 1 µM (PI3K gamma; [5]): 9%
inhibition at 1.1 µM (PI3Kalpha; [6]): 15%
inhibition at 1.1 µM (PI3K beta; [8]): 84%

N#Cc1c(N2CCOCC2)sc(C(=O)O)c1C(F)(F)c1ccc2ccccc2c1 [Compound 308]
inhibition at 1 µM (PI3K gamma; [5]): 39%
inhibition at 1.1 µM (PI3Kalpha; [6]): 41%
inhibition at 1.1 µM (PI3K beta; [8]): 106%

N#Cc1c(N2CCOCC2)sc(C(=O)O)c1Cc1cc(F)c2ccccc2c1 [Compound 324]
inhibition at 1 µM (PI3K gamma; [5]): 67%
inhibition at 1.1 µM (PI3Kalpha; [6]): 107%
inhibition at 1.1 µM (PI3K beta; [8]): 118%

COC(c1ccc2ccccc2c1)c1c(C(=O)O)sc(N2CCOCC2)c1C#N (stereo not shown) [Compound 337]
inhibition at 1 µM (PI3K gamma; [5]): 11%
inhibition at 1.1 µM (PI3Kalpha; [6]): 14%
inhibition at 1.1 µM (PI3K beta; [8]): 60%

N#Cc1c(N2CCOCC2)sc(C(=O)O)c1Cc1ccc2c(F)cccc2c1 [Compound 343]
inhibition at 1 µM (PI3K gamma; [5]): 67%
inhibition at 1.1 µM (PI3Kalpha; [6]): 84%
inhibition at 1.1 µM (PI3K beta; [8]): 110%

N#Cc1c(N2CCOCC2)sc(C(=O)O)c1C(F)c1ccc2ccccc2c1 (stereo not shown) [Compound 345]
inhibition at 1 µM (PI3K gamma; [5]): 62%
inhibition at 1.1 µM (PI3K beta; [8]): 105%

N#Cc1c(N2CCOCC2)sc(-c2nnn[nH]2)c1C(F)(F)c1ccc2ccccc2c1 [Compound 349]
inhibition at 1 µM (PI3K gamma; [5]): 42%
inhibition at 1.1 µM (PI3Kalpha; [6]): 43%
inhibition at 1.1 µM (PI3K beta; [8]): 108%

c1ccc2cc(Cc3nc(N4CCOCC4)sc3-c3nnn[nH]3)ccc2c1 [Compound 360, 4-[4-(2-naphthylmethyl)-5-(1H-tetrazol-5-yl)-1,3-thiazol-2-yl]morpholine]
inhibition at 1 µM (PI3K gamma; [5]): 49%
inhibition at 1.1 µM (PI3Kalpha; [6]): 30%
inhibition at 1 µM (PI3K delta; [7]): 110%
inhibition at 1.1 µM (PI3K beta; [8]): 106%
